“And” between values parts separate entries of the source, which are not always exact repeats. Equal values may be shown once. Ends that are not written are not given here. * marks the point of attachment. Stearoyl = CCCCCCCCCCCCCCCCCC(=O)*

What all share (format): in vivo
The nature of experiment [1]: Body weight of apoE knockout mice on high-fat diet. The source says:
(§1) Male apoE knockout mice (C57BL/6J) at age of 10 weeks were purchased from GemPharmatech, Nanjing, Jiangsu, China. The mice were fed with low fat diet [SPF growth and reproduction feed for rats and mice: 12.95% fat (wt/wt), 24.02% protein (wt/wt)] from Beijing KeaoXieli Feed Co. Ltd., Beijing, China in a pathogen-free facility for two weeks, and then divided into the following three groups (8 mice each group): (a) the control group was fed low fat diet, referred to as Chow; (b) the high-fat group was fed high-fat diet (HFD) [21% fat (wt/wt), 0.15% (wt/wt) cholesterol, 20% protein (wt/wt), Research Diets, New Brunswick, NJ, D12079B], referred to as the HFD; (c) the treatment group was fed high-fat diet plus the injection through tail vein with polypeptide 21H21 (50 μg/200μL 1× PBS) once every four days, referred to as the HFD+21H21. The total injection was 10 times. One day after the last injection, the mice were anesthetized and euthanized in carbon dioxide, and then blood, liver and aorta were collected. During the period of the experiment, each group of mice was weighed. All animal experiments were carried out in accordance with the animal management guidelines of the People's Republic of China.

The subject of experiment [2] is apoE knockout mice. Kind of experiment: Oil Red O staining of liver cryostat sections, area of neutral lipids. As to conditions: HFD+21H21 vs HFD, 50 μg tail vein once every four days, 10 injections, p value=0.0004.
Text: as §1
Liver tissue collected in Experimental Example 1 was embedded in OCT compound (Sakura Tissue-Tek) and then stored at −80° C. […]

For experiment [3], the system named is apoE knockout mice. Kind of experiment: Oil Red O staining of aortic root cryostat sections, area of neutral lipids. The note with it: HFD+21H21 vs HFD, 50 μg tail vein once every four days, 10 injections.
Text: as §1
The upper half of the heart together with the aortic root tissue collected in Experimental Example 1 was embedded in OCT compound (Sakura Tissue-Tek) and stored at −80° C. […]

For experiment [4], the system named is apoE knockout mice. Briefly: Oil Red O staining of full-length aorta, area of neutral lipids. As to conditions: HFD+21H21 vs HFD, 50 μg tail vein once every four days, 10 injections, p value=4.40108E-05.
Text: as §1
Aorta separation in Experimental Example 1 was carried out as Tangirala R K, et al. (Circulation. 1999; 100: 1816-1822). […]

A short description of experiment [5]: Body weight of LDLR-deficient mice on high-fat diet. The text has this:
(§2) Male LDLR-deficient mice (C57BL/6-Ldlrem1Cd82/Nju) at age of 11 weeks were purchased fromGemPharmatech, Nanjing, Jiangsu, China. The mice were fed with low fat diet [SPF growth and reproduction feed for rats and mice: 12.95% fat (wt/wt), 24.02% protein (wt/wt)] from Beijing KeaoXieli Feed Co. Ltd., Beijing, China in a pathogen-free facility for two weeks, and then divided into the following three groups (8 mice each group): (a) the control group was fed low fat diet, referred to as Chow; (b) the high-fat group was fed high-fat diet (HFD) [21% fat (wt/wt), 0.15% (wt/wt) cholesterol, 20% protein (wt/wt), Research Diets, New Brunswick, NJ, D12079B], referred to as the HFD; (c) the treatment group was fed high-fat diet plus the injection through tail vein with polypeptide 21H21(50μg/200μL lx PBS) once every three days, referred to as the HFD+21H21. The total injection was 10 times. One day after the last injection, the mice were anesthetized and euthanized in carbon dioxide, and then blood, liver and aorta werecollected. During the period of the experiment, each group of mice was weighed. All animal experiments were carried out in accordance with the animal management guidelines of the People's Republic of China.

The next experiment has as its system LDLR-deficient mice. Kind of experiment: Oil Red O staining of full-length aorta, area of neutral lipids. The note with it: HFD+21H21 vs HFD, 50 μg tail vein once every three days, 10 injections.
Text: as §2
Aorta separation in Experimental Example 4 was carried out as Tangirala RK, et al. (Circulation. 1999; 100: 1816-1822). […]

Consider “21H21: Stearic acid conjugated to the N-terminus of polypeptide SEQ ID NO: 3 (FAYLQDVVEQAIIRVLTGTEK) (Stearoyl-FAYLQDVVEQAIIRVLTGTEK)”, for which the “Effect on weight gain by high-fat diet” value in experiment [1] (50 μg per mouse i.v. once every four days) was “able to offset weight gain”. The “Percentage decrease of body weight (HFD + 21H21 vs HFD)” value in experiment [1] (Day 88) was 12.82%; in experiment [1] (Day 97), 14.46%; in experiment [1] (Day 105) it was 15.79%; in experiment [1] (Day 110), 13.82%; in experiment [1] (Day 119), 12.24%; in experiment [1] (Day 123), 15.04%. Moreover, the “Average body weight per mouse” value in experiment [1] (Day 88, HFD + 21H21 50 μg tail vein once every four days) was determined as 24.38 g; in experiment [1] (Day 97, HFD + 21H21 50 μg tail vein once every four days), 24.83 g; in experiment [1] (Day 105, HFD + 21H21 50 μg tail vein once every four days), 25.21 g; in experiment [1] (Day 110, HFD + 21H21 50 μg tail vein once every four days), 25.61 g; in experiment [1] (Day 119, HFD + 21H21 50 μg tail vein once every four days), 26.63 g; in experiment [1] (Day 123, HFD + 21H21 50 μg tail vein once every four days), 26.76 g. For the same substance, the “Prevention of accumulation of neutral lipids in liver tissue caused by high-fat diet” value with apoE knockout mice [2] worked out at 53%. For the same substance, in the experiment on apoE knockout mice [3], the “Prevention of accumulation of neutral lipids at the aortic root caused by high-fat diet” value stood at 35%. Moreover, the “Prevention of atherosclerotic lesion of full-length aorta” value in the experiment on apoE knockout mice [4] is listed as 48%; in the experiment on LDLR-deficient mice, 94%. The “Percentage of weight gain during experiment” value in experiment [5] (HFD + 21H21 50 μg tail vein once every three days) is 10.02%. Moreover, the “Average body weight after experiment” value in experiment [5] (HFD + 21H21 50 μg tail vein once every three days, 10 injections) amounted to 29.2 ± 0.02 g. For the same substance, in experiment [5] (HFD + 21H21 group (n = 8), baseline), the “Average body weight before experiment” value is 26.54 ± 0.02 g. For the same substance, the “Percentage of weight gain offset by 21H21” value in experiment [5] (HFD + 21H21 vs HFD) is 29% and 29.17%.

Source of the values: patent publication US12479888B2, “Polypeptide and application thereof” (HDL SOLUTIONS OTTAWA, priority 2019, dated 2025).
